How the values were obtained:
Format in all cases: cell-based
[1] = system: Colorectal cell line KM12 (harboring endogenous TPM3-TRKA fusion gene); test: KM12 cell proliferation assay (CellTiter-Glo); details: Homo sapiens, 72 hours incubation, read-out: KM 12 cell prolif. IC50
Procedure: (§1) Colorectal cell lines KM 12 (harboring endogenous TPM3-TRKA fusion gene) cells were cultured in DMEM medium, supplemented with 10% fetal bovine serum and 100 U/mL of penicillin/streptomycin. 5000 cells were seeded in 384 well white plate for 24 hours before compounds treatment. Cell proliferation was measured using CellTiter-Glo luciferase-based ATP detection assay (Promega) following the manufactures's protocol after 72 hours incubation. IC50 determinations were performed using GraphPad Prism software (GraphPad, Inc., San Diego, Calif.).
as §1, with “Alternatively: Colorectal” for “Colorectal”, “line KM12” for “lines KM 12”, “penicillin/streptomycin. […]” for “penicillin/streptomycin.”

[2] = system: Essential thrombocythemia cell line SET-2 cells (harboring endogenous JAK2 point mutation); test: SET-2 cell proliferation assay (CellTiter-Glo); details: Homo sapiens, 72 hours incubation, read-out: SET2 cell proli. IC50
[3] = system: T cell lymphoma Karpas-299 cell line (harboring endogenous NPM-ALK fusion gene); test: Karpas-299 cell proliferation assay (CellTiter-Glo); details: Homo sapiens, 72 hours incubation, read-out: Karpas 299 cell proli. IC50

Row | Structure (SMILES) | IC50 [1] | IC50 [2] | IC50 [3]
1 | CCCN1Cc2cc(F)ccc2OCCNC(=O)c2cnn3ccc1nc23 [Example 44, 11-fluoro-14-propyl-6,7,13,14-tetrahydro-1,15-ethenopyrazolo[4,3-f][1,4,8,10]benzoxatriazacyclotridecin-4(5H)-one] | 9.9 nM | 2030 nM | 4.1 µM
2 | O=C1NCCOc2ccc(F)cc2C(C2CC2)Nc2ccn3ncc1c3n2 (stereo not drawn) [Example 66, 13-cyclopropyl-11-fluoro-6,7,13,14-tetrahydro-1,15-ethenopyrazolo[4,3-f][1,4,8,10]benzoxatriazacyclotridecin-4(5H)-one] | 17.5 nM | 1540 nM | 1.9 µM
3 | O=C1NCCOc2ccc(F)cc2C(CC2CC2)Nc2ccn3ncc1c3n2 (stereo not drawn) [Example 89, 13-(cyclopropylmethyl)-11-fluoro-6,7,13,14-tetrahydro-1,15-ethenopyrazolo[4,3-f][1,4,8,10]benzoxatriazacyclotridecin-4(5H)-one] | 0.2 nM | 859 nM | 1.4 µM
4 | CC(C)(O)CN1Cc2cc(F)ccc2OCCNC(=O)c2cnn3ccc1nc23 [Example 101, 11-fluoro-14-(2-hydroxy-2-methylpropyl)-6,7,13,14-tetrahydro-1,15-ethenopyrazolo[4,3-f][1,4,8,10]benzoxatriazacyclotridecin-4(5H)-one] | > 1000 nM | 6000 nM | > 10 µM
5 | O=C1NCCOc2ccc(F)cc2CCc2ccn3ncc1c3n2 [Example 102, 11-fluoro-6,7,13,14-tetrahydro-1,15-ethenopyrazolo[4,3-f][1,4,8]benzoxadiazacyclotridecin-4(5H)-one] | 1.2 nM | 2450 nM | 2.3 µM
6 | O=C1NCCOc2ccc(F)cc2C(C2CCC2)Nc2ccn3ncc1c3n2 (stereo not drawn) [Example 86, 13-cyclobutyl-11-fluoro-6,7,13,14-tetrahydro-1,15-ethenopyrazolo[4,3-f][1,4,8,10]benzoxatriazacyclotridecin-4(5H)-one] |  | 2000 nM | 1 µM
7 | CN1Cc2cc(F)ccc2SCCNC(=O)c2cnn3ccc1nc23 [Example 104, 11-fluoro-14-methyl-6,7,13,14-tetrahydro-1,15-ethenopyrazolo[4,3-f][1,4,8,10]benzothiatriazacyclotridecin-4(5H)-one] | 0.3 nM | 2350 nM | 5.75 µM
8 | CN1Cc2cc(F)ccc2OCC(O)CNC(=O)c2cnn3ccc1nc23 (stereo not drawn) [Example 96, 12-fluoro-7-hydroxy-15-methyl-5,6,7,8,14,15-hexahydro-4H-1,16-ethenopyrazolo[4,3-g][1,5,9,11]benzoxatriazacyclotetradecin-4-one] | 0.6 nM | 6000 nM | 5 µM
9 | CN1Cc2cc(F)ccc2[S+]([O-])CCNC(=O)c2cnn3ccc1nc23 (stereo not drawn) [Example 106, 11-fluoro-14-methyl-6,7,13,14-tetrahydro-1,15-ethenopyrazolo[4,3-f][1,4,8,10]benzothiatriazacyclotridecin-4(5H)-one 8-oxide] | 176 nM | > 10000 nM | > 10 µM
10 | O=C1NCCCOc2ccc(F)cc2C(CO)Nc2ccn3ncc1c3n2 (stereo not drawn) [Example 99, 12-fluoro-14-(hydroxymethyl)-5,6,7,8,14,15-hexahydro-4H-1,16-ethenopyrazolo[4,3-g][1,5,9,11]benzoxatriazacyclotetradecin-4-one] | 6.3 nM | 6850 nM | 0.506 µM
11 | CCC1Nc2ccn3ncc(c3n2)C(=O)NCCOc2ccc(F)cc21 (stereo not drawn) [Example 85, 13-ethyl-11-fluoro-6,7,13,14-tetrahydro-1,15-ethenopyrazolo[4,3-f][1,4,8,10]benzoxatriazacyclotridecin-4(5H)-one] | 0.9 nM | 928 nM | 1.08 µM
12 | CN1CCC(N2Cc3cc(F)ccc3OCCNC(=O)c3cnn4ccc2nc34)C1 (stereo not drawn) [Example 105, 11-fluoro-14-(1-methylpyrrolidin-3-yl)-6,7,13,14-tetrahydro-1,15-ethenopyrazolo[4,3-f][1,4,8,10]benzoxatriazacyclotridecin-4(5H)-one] | 500 nM | > 10000 nM | > 5 µM
13 | O=C1NCCOc2ccc(F)cc2CN(CCO)c2ccn3ncc1c3n2 [Example 47, 11-fluoro-14-(2-hydroxyethyl)-6,7,13,14-tetrahydro-1,15-ethenopyrazolo[4,3-f][1,4,8,10]benzoxatriazacyclotridecin-4(5H)-one] | 31 nM | > 10000 nM | > 10 µM
14 | C[C@H]1Nc2ccn3ncc(c3n2)C(=O)NC[C@@H](O)COc2ccc(F)cc21 [Example 90, (7R,14R)-12-fluoro-7-hydroxy-14-methyl-5,6,7,8,14,15-hexahydro-4H-1,16-ethenopyrazolo[4,3-g][1,5,9,11]benzoxatriazacyclotetradecin-4-one] | 1.8 nM | 5910 nM | 1.65 µM
15 | C[C@H]1CNC(=O)c2cnn3ccc(nc23)CCc2cc(F)ccc2O1 [Example 108, (7S)-11-fluoro-7-methyl-6,7,13,14-tetrahydro-1,15-ethenopyrazolo[4,3-f][1,4,8]benzoxadiazacyclotridecin-4(5H)-one] | 3.6 nM | 870 nM | 0.619 µM
16 | CC1c2cc(F)ccc2OCCNC(=O)c2cnn3ccc(nc23)N1C (stereo not drawn) [Example 100, 11-fluoro-13,14-dimethyl-6,7,13,14-tetrahydro-1,15-ethenopyrazolo[4,3-f][1,4,8,10]benzoxatriazacyclotridecin-4(5H)-one] | 0.6 nM | 5830 nM | 5.36 µM
17 | NC(=O)C1Nc2ccn3ncc(c3n2)C(=O)NCCOc2ccc(F)cc21 (stereo not drawn) [Example 60, 11-fluoro-4-oxo-4,5,6,7,13,14-hexahydro-1,15-ethenopyrazolo[4,3-f][1,4,8,10]benzoxatriazacyclotridecine-13-carboxamide] | > 1000 nM |  | 
18 | COC(=O)C1Nc2ccn3ncc(c3n2)C(=O)NCCOc2ccc(F)cc21 (stereo not drawn) [Example 59, methyl 11-fluoro-4-oxo-4,5,6,7,13,14-hexahydro-1,15-ethenopyrazolo[4,3-f][1,4,8,10]benzoxatriazacyclotridecine-13-carboxylate] | > 1000 nM |  | 
19 | C[C@@H]1COc2ccc(F)cc2[C@@H](C)Nc2ccn3ncc(c3n2)C(=O)N1 [Example 110, (6R,13R)-11-fluoro-6,13-dimethyl-6,7,13,14-tetrahydro-1,15-ethenopyrazolo[4,3-f][1,4,8,10]benzoxatriazacyclotridecin-4(5H)-one] | 0.7 nM | 219 nM | 0.163 µM
20 | CC(C)N1Cc2cc(F)cnc2OCCNC(=O)c2cnn3ccc1nc23 [Example 62, 11-fluoro-14-(propan-2-yl)-6,7,13,14-tetrahydro-1,15-ethenopyrazolo[4,3-f]pyrido[3,2-1][1,4,8,10]oxatriazacyclotridecin-4(5H)-one] | 0.9 nM |  | 4 µM
21 | C[C@@H]1COc2ccc(F)cc2CN(C)c2ccn3ncc(c3n2)C(=O)N1 [Example 95, (6R)-11-fluoro-6,14-dimethyl-6,7,13,14-tetrahydro-1,15-ethenopyrazolo[4,3-f][1,4,8,10]benzoxatriazacyclotridecin-4(5H)-one] | 0.4 nM | 2670 nM | 4.11 µM
22 | C[C@@H]1CNC(=O)c2cnn3ccc(nc23)N(C)Cc2cc(F)ccc2O1 [Example 94, (7R)-11-fluoro-7,14-dimethyl-6,7,13,14-tetrahydro-1,15-ethenopyrazolo[4,3-f][1,4,8,10]benzoxatriazacyclotridecin-4(5H)-one] | 0.2 nM | > 10000 nM | > 10 µM
23 | CC1Nc2ccn3ncc(c3n2)C(=O)NCCOc2ccc(Cl)cc21 (stereo not drawn) [Example 84, 11-chloro-13-methyl-6,7,13,14-tetrahydro-1,15-ethenopyrazolo[4,3-f][1,4,8,10]benzoxatriazacyclotridecin-4(5H)-one] | 0.8 nM | 3150 nM | 4.2 µM
24 | O=C1NCCOc2ccc(F)cc2CN(C2CC2)c2ccn3ncc1c3n2 [Example 46, 14-cyclopropyl-11-fluoro-6,7,13,14-tetrahydro-1,15-ethenopyrazolo[4,3-f][1,4,8,10]benzoxatriazacyclotridecin-4(5H)-one] | 1.5 nM | 7000 nM | 7.1 µM
25 | [2H]C1([2H])NC(=O)c2cnn3ccc(nc23)N(C)Cc2cc(F)ccc2OC1([2H])[2H] [Example 87, 11-fluoro-14-methyl(6,6,7,7-^2H4)-6,7,13,14-tetrahydro-1,15-ethenopyrazolo[4,3-f][1,4,8,10]benzoxatriazacyclotridecin-4(5H)-one] | 0.3 nM | 2730 nM | 1.59 µM
26 | C[C@H]1CNC(=O)c2cnn3ccc(nc23)N(C)Cc2cc(F)ccc2O1 [Example 97, (7S)-11-fluoro-7,14-dimethyl-6,7,13,14-tetrahydro-1,15-ethenopyrazolo[4,3-f][1,4,8,10]benzoxatriazacyclotridecin-4(5H)-one] | 0.3 nM | 6500 nM | 1.42 µM
27 | CC1COc2ccc(F)cc2CN(C)c2ccn3ncc(c3n2)C(=O)N1 (stereo not drawn) [Example 48, 11-fluoro-6,14-dimethyl-6,7,13,14-tetrahydro-1,15-ethenopyrazolo[4,3-f][1,4,8,10]benzoxatriazacyclotridecin-4(5H)-one] | 62 nM | 6000 nM | 6 µM

From patent publication US10246466B2, “Diaryl macrocycles as modulators of protein kinases” (TP THERAPEUTICS, INC., priority 2014, dated 2019)
